# Patent US11714094B2, “Composition comprising prostacyclin andor analogues thereof for treatment of acute critically ill patients” (priority 2015, dated 2023)
# Like-named read-outs stand apart in the source and are kept apart here.
# Assays:
# [1] = tested on: endothelial derived biomarkers; assay: Randomized placebo controlled trial of i.v. Ilomedin in Whipple surgery patients: plasma endothelial derived biomarkers by ELISA; format: in vivo, human; conditions: 1 ng/kg/min i.v.
# Method: (§1) TEG was performed according to the manufactures recommendations. Endothelial function was evaluated by measuring plasma levels of endothelial derived biomarkers by commercially available ELISA kits. Biomarkers indicating: Endothelial glycocalyx damage (syndecan-1), endothelial cell damage (thrombomodulin) and necrosis (nucleosomes) were investigated.
# [2] = tested on: endothelial derived biomarkers; assay: Healthy volunteer study, 2 hours i.v. Ilomedin infusion: plasma endothelial derived biomarkers by ELISA; format: in vivo, human; conditions: 1 ng/kg/min i.v. for 2 hours
# Method: Blood samples for endothelial function were collected at the following time-points: Before the infusion (0 h), after 30 min infusion (30 min), immediately after ceasing the infusion (2 h) and 2 hours after the end of iloprost infusion. Endothelial function was evaluated by measuring plasma levels of endothelial derived biomarkers by commercially available ELISA kits. Biomarkers indicating: Endothelial glycocalyx damage (syndecan-1), endothelial cell damage (thrombomodulin) and endothelial cell anticoagulation (protein C) were investigated. Furthermore, we measured plasma concentration of prostacyclin (FIG. 3).
# [3] = Randomized placebo controlled trial of 24 hours i.v. Ilomedin in AMI PCI patients: hemodynamics and bleeding events; format: in vivo, human; conditions: 0.5 ng/kg/min i.v. for 24 hours, during or after infusion
# Method: (§2) Ilomedin® (iloprost, prostacyclin analog) infusion at a dose of 0.5 ng/kg/min compared to placebo in 17 patients with acute myocardial infarction (AMI) undergoing percutanuous coronary intervention (PCI) with stent implantation [Holmvang et al 2012]. Patients randomized to 24 hours active (n=9) or placebo (n=8) therapy were evaluated for hemodynamics, bleeding events and for functional whole blood hemostasis (Multiplate, TEG) and endothelial function in blood sampled before iloprost infusion (baseline), during infusion (1 h, 6 h and 24 h) and 24 hours after ceasing iloprost infusion (48 h). Bleeding was evaluated by GUSTO criteria (severe, moderate, mild, none) and hemostasis was evaluated by Multiplate and TEG according to the manufactures recommendations. Endothelial function was evaluated by measuring plasma levels of endothelial derived biomarkers by commercially available ELISA kits. Biomarkers indicating: Endothelial glycocalyx damage (syndecan-1), endothelial cell damage (thrombomodulin), endothelial cell activation (sE-selectin, ICAM-1) and anticoagulation (protein C) were investigated.
# [4] = tested on: functional whole blood hemostasis; assay: Randomized placebo controlled trial of i.v. Ilomedin in Whipple surgery patients: TEG; format: in vivo, human
# Method: as §1
# [5] = tested on: functional whole blood hemostasis; assay: Randomized placebo controlled trial of 24 hours i.v. Ilomedin in AMI PCI patients: Multiplate, TEG; format: in vivo, human; conditions: 0.5 ng/kg/min i.v. for 24 hours, during or after infusion
# Method: The inventors conducted a randomized placebo controlled double blind clinical trial investigating safety and efficacy of 24 hours i.v. Ilomedin® (iloprost, prostacyclin analog) infusion at a dose of 0.5 ng/kg/min compared to placebo in 17 patients with acute myocardial infarction (AMI) undergoing percutanuous coronary intervention (PCI) with stent implantation [Holmvang et al 2012]. Patients randomized to 24 hours active (n=9) or placebo (n=8) therapy were evaluated for hemodynamics, bleeding events and for functional whole blood hemostasis (Multiplate, TEG) and endothelial function in blood sampled before iloprost infusion (baseline), during infusion (1 h, 6 h and 24 h) and 24 hours after ceasing iloprost infusion (48 h).
# [6] = tested on: endothelial derived biomarkers; assay: Randomized placebo controlled trial of 24 hours i.v. Ilomedin in AMI PCI patients: plasma endothelial derived biomarkers by ELISA; format: in vivo, human; conditions: 0.5 ng/kg/min i.v. for 24 hours, baseline to 48 h
# Method: as §2
# [7] = Whipple surgery patients
# Method: The inventors conducted a randomized placebo controlled double blind clinical trial investigating safety and efficacy of intra- and post-operative i.v. Ilomedin® (iloprost, prostacyclin analog) infusion at a dose of 1 ng/kg/min compared to placebo in 16 patients undergoing whipple surgery at Rigshospitalet, a tertiary level teaching University hospital in Copenhagen, Denmark. The inclusion criteria were adults (age […]) undergoing whipple surgery based on surgical indication due to cancer/dysplasia, familial adenomatous polyposis or inflammation/pancreatitis.
# Data on demography, co-morbidities, surgical time and 28-day mortality were assessed. Hemodynamics were measured continuously (heart rate (HR), systolic, diastolic and mean arterial pressure (SBT, DBT, MAP)) or at baseline, end of surgery and 6 h and 24 h post-operative (systemic vascular resistance (SVR), stroke volume (SV), central venous pressure (CVP)). The volume and number of units of red blood cells (RBC), plasma and platelet concentrates administered were recorded at the end of surgery, 6 h and 24 h post-operative. Bleeding volume was assessed intra-operative and 6 h and 24 h post-operative. The volume of crystalloids and colloids (only albumin was allowed) was, together with urine output, recorded intra-operative and 6 h and 24 h post-operative.
# Blood samples for evaluation of functional whole blood hemostasis (TEG) and endothelial function were collected pre-commencing infusion with study drug (baseline), at the end of surgery (post-op) and 6 h after surgery just before ceasing study drug infusion (6 h). Blood samples for routine biochemistry (hemoglobin, creatinine and lactate) were collected at baseline, post-op and 6 h and 24 h post-operative.
# [8] = tested on: clot formation and platelet aggregation; assay: Functional whole blood hemostatic assays (TEG, Multiplate) under low-dose prostacyclin infusion; format: in vivo, human
# Text: However, as for the vasodilatory effect, the antiaggretory effect is highly dose-dependent [Moncada et al 1976; O'Grady et al 1980]. […] The term “thrombelastography” or “TEG” refers to a commercially available viscoelastic whole blood hemostasis assay employing citrated or non-anticoagulated blood. The TEG analyzer uses a small whole blood sample in a rotating cup and a pin suspended in the blood by a torsion wire, which is monitored for motion. To speed up the clot formation, a standardized amount of an activator of coagulation (e.g. kaolin, tissue factor) may be added to the cup just before the pin is placed in the cup. The TEG assay is suitable for determining important parameters in the clotting activity (clot initiation time, clot build up dynamics), clot strength (maximum amplitude (MA)) and clot degradation (fibrinolysis). The TEG system's approach to monitoring patient hemostasis is based on the premise that the end result of the hemostatic process is the clot. The clot's physical properties determine whether the patient will have normal hemostasis, or will be at increased risk for hemorrhage or thrombosis. The term “Multiplate” refers to a commercially available impedance aggregometry based whole blood platelet function analyzer employing anti-coagulated blood. The Multiplate analyzer uses a small whole blood sample in a chamber with two pairs of platinum electrodes. Standardized platelet agonists are added to the blood in the chamber to investigate specific platelet activation/signaling pathways. The Multiplate assay is based on the attachment of platelets on two platinum electrodes, resulting in an increase of electrical resistance between the electrodes.
# [9] = Retrospective study of critically ill ICU patients on CRRT with pre-filter Flolan or heparin; format: in vivo, human; conditions: for 90-day mortality / 365-day mortality / platelet count during CRRT: agent given in the dialysis filter; for 30-day mortality: agent given in the dialysis filter (Flolan 5 ng/kg/min)
# Method: The inventors conducted a retrospective study of critically ill patients treated or not treated with prostacyclin infusion during their intensive care unit (ICU) stay [Windelov et al 2010]. Ninety-four critically ill patients admitted to the ICU for medical or surgical complications, underwent hemofiltration (continuous renal replacement therapy, CRRT) with or without concomitant Flolan® (epoprostenol sodium, prostacyclin analog) treatment. Flolan® was administered at a low dose (5 ng/kg/min) in the filters to prevent these from clotting and consequently, there was only a minor spill-over of Flolan® to the systemic circulation.
# [10] = cited from earlier work
# whole blood hemostasis = assay: Healthy volunteer study, 2 hours i.v. Flolan infusion: Multiplate and TEG; format: in vivo, human; conditions: eight healthy male volunteers; 4 ng/kg/min i.v. for 2 hours
# Text: The term “thrombelastography” or “TEG” refers to a commercially available viscoelastic whole blood hemostasis assay employing citrated or non-anticoagulated blood. The TEG analyzer uses a small whole blood sample in a rotating cup and a pin suspended in the blood by a torsion wire, which is monitored for motion. To speed up the clot formation, a standardized amount of an activator of coagulation (e.g. kaolin, tissue factor) may be added to the cup just before the pin is placed in the cup. The TEG assay is suitable for determining important parameters in the clotting activity (clot initiation time, clot build up dynamics), clot strength (maximum amplitude (MA)) and clot degradation (fibrinolysis). The TEG system's approach to monitoring patient hemostasis is based on the premise that the end result of the hemostatic process is the clot. The clot's physical properties determine whether the patient will have normal hemostasis, or will be at increased risk for hemorrhage or thrombosis. The term “Multiplate” refers to a commercially available impedance aggregometry based whole blood platelet function analyzer employing anti-coagulated blood. The Multiplate analyzer uses a small whole blood sample in a chamber with two pairs of platinum electrodes. Standardized platelet agonists are added to the blood in the chamber to investigate specific platelet activation/signaling pathways. […]
# [11] = Healthy volunteer study, 2 hours i.v. Flolan infusion: hemodynamics; format: in vivo, human; conditions: eight healthy male volunteers; 4 ng/kg/min i.v. for 2 hours; any time point
# Method: The study was conducted investigating the influence of 2 hours i.v. Flolan® (epoprostenol sodium, prostacyclin analog) infusion at a dose of 4 ng/kg/min in eight healthy male volunteers.
# [12] = tested on: endothelial derived biomarkers; assay: Healthy volunteer study, 2 hours i.v. Flolan infusion: plasma endothelial derived biomarkers by ELISA; format: in vivo, human; conditions: healthy volunteers, 4 ng/kg/min i.v. for 2 hours
# Method: The study was conducted investigating the influence of 2 hours i.v. Flolan® (epoprostenol sodium, prostacyclin analog) infusion at a dose of 4 ng/kg/min in eight healthy male volunteers. Endothelial function was evaluated in the study e.g. by measuring plasma levels of endothelial derived biomarkers by commercially available ELISA kits. Biomarkers indicating: Endothelial glycocalyx damage (syndecan-1), endothelial cell damage (thrombomodulin) or necrosis (nucleosomes, HMGB1), endothelial cell activation (PAI-1) and endothelial cell anticoagulation (protein C, antithrombin) were investigated (FIG. 2).
# [13] = healthy volunteers, during infusion
# [14] = healthy volunteers, 1-4 ng/kg/min infusion
compound,measurement,setting,value
CC#CCC(C)[C@H](O)/C=C/[C@@H]1[C@H]2C/C(=C/CCCC(=O)O)C[C@H]2C[C@H]1O (stereo partly drawn) [iloprost],"nucleosome level, change intra- and postoperatively vs placebo",[1],increased significantly more intra- and postoperatively in placebo patients compared to iloprost patients
same,syndecan-1 level vs placebo,[1],trend towards higher levels of syndecan-1 in placebo patients compared to iloprost patients
same,"thrombomodulin level, change intra- and postoperatively vs placebo",[1],increased significantly more intra- and postoperatively in placebo patients compared to iloprost patients
same,circulating level of thrombomodulin,"[2]; eight healthy male volunteers, continuing several hours after infusion",marked decrease
same,circulating level of Syndecan-1,[2]; [13],decreased
same,circulating level of protein C,[2]; [13],decreased
same,bleeding events vs placebo,[3],no differences
same,hemodynamics vs placebo,[3],no differences
same,TEG maximum clot firmness intra-operatively,"[4]; Whipple surgery patients, 1 ng/kg/min i.v.",remained stable
same,Multiplate or TEG vs placebo,[5],no differences
same,sE-selectin,[6],decreased significantly
same,intra- and post-operative RBC received (median),[7]; 1 ng/kg/min i.v.,0 mL
same,lactate post-operatively,[7]; 1 ng/kg/min i.v.,remained unchanged
same,post-operative hemoglobin (median),[7]; 1 ng/kg/min i.v.,6.7 mmol/L
same,volume of RBC from arrival at the post-operative ward and 6 h post-operatively,[7]; 1 ng/kg/min i.v.,0 mL
same,28-day mortality vs placebo,[7]; 1 ng/kg/min i.v. intra- and post-operative,no differences
CCCCC[C@H](O)/C=C/[C@@H]1[C@H]2C/C(=C/CCCC(=O)O)O[C@H]2C[C@H]1O [prostacyclin],clot formation and platelet aggregation,"[8]; acute critically ill patients (major abdominal surgery, PCI after AMI), 0.5-1 ng/kg/min infusion",neither influenced clot formation nor platelet aggregation
same,"hemostasis, bleeding or adverse events related to impaired hemostasis","[8]; acute critically ill patients, low-dose infusion 0.5-1 ng/kg/min",does not compromise hemostasis or induce bleeding or adverse events related to impaired hemostasis
same,platelet aggregation,"[8]; general conclusion, dose dependence",dose-dependently inhibits
same,"hemostasis, bleeding or adverse events related to impaired hemostasis","[8]; healthy volunteers and acute critically ill patients, low-dose infusion up to 4 ng/kg/min",does not compromise hemostasis or induce bleeding or adverse events related to impaired hemostasis
same,clot formation and platelet aggregation,[8]; [14],neither influenced clot formation nor platelet aggregation
same,"anti-thrombotic effects (TEG, Multiplate)",[8]; low-dose infusion,no measurable anti-thrombotic effects
same,90-day mortality,[9],34%
same,365-day mortality,[9],38%
same,platelet count during CRRT,[9],increased
same,30-day mortality,[9],21%
same,systolic blood pressure,"[10]; acute critically ill patients, doses from 5-10 ng/kg/min",lowers systolic blood pressure dose-dependently
same,blood pressure,[10]; [14],did not influence
same,diastolic blood pressure,"[10]; human volunteers, dose of 8 ng/kg/min",reduced
same,effect on systolic or diastolic blood pressure,"[10]; human volunteers, doses less than 8 ng/kg/min",no significant effect
same,effect on systolic blood pressure,"[10]; human volunteers, doses up to 16 ng/kg/min",no effect
same,hemodynamic effects,"[10]; low-dose infusion up to 4 ng/kg/min, healthy volunteers and acute critically ill patients",negligible
same,blood pressure,"[10]; patients with traumatic brain injury, AMI treated by PCI, septic shock or CABG surgery, 0.5-2 ng/kg/min infusion",did not negatively influence
same,"Multiplate and TEG values, baseline vs later",whole blood hemostasis,no changes
same,clot formation,"[4]; patients undergoing major abdominal surgery, intra- and post-operative infusion",improved
same,blood pressure vs baseline,[11],did not change
same,heart rate vs baseline,[11],did not change
same,circulating level of PAI-1,[12],declined
same,circulating level of antithrombin,[12],decreased
same,circulating level of thrombomodulin,[12]; continuing several hours after infusion,marked decrease
same,circulating level of protein C,[12]; hours after ceasing infusion,decreased
heparin,90-day mortality,[9],53%
same,365-day mortality,[9],57%
same,platelet count during CRRT,[9],declined
same,30-day mortality,[9],39%
